Legend:
[1] = tested on: young adult NMRI mice having undergone an acoustic trauma; test: Frequency specific ABR thresholds after noise trauma; format: in vivo; conditions: 26.4 mg/kg peroral once daily for 14 days after noise trauma (4-20 kHz, 115 dB SPL, 3 h); compared to placebo; FIG. 1
Protocol: 12 animals per group (young adult Naval Medical Research Institute (NMRI) mice), 96 animals in total.
Frequency specific ABR-thresholds at 4; 8; 12; 16; 20; 24; 28; 32 kHz under anesthesia (Ketamine/Xylazine). At least 3 measurements per frequency were performed.
(§1) Noise application was performed for 3 h under anesthesia, using a broad band noise 4-20 kHz, 115 dB SPL, free-field.
(§2) Post-traumatic (0; 24 h; 48 h or 72 h after noise exposure) initiation of oral administration of 26.4 mg/kg (R)-azasetron besylate or of the related placebo formulation, respectively, was performed once daily. Treatments were continued daily for 14 days. • Treatment (T) group 1 +Placebo (P) group 1: Treatment from d1-d14 • Treatment (T) group 2 +Placebo (P) group 2: Treatment from d2-d15 • Treatment (T) group 3 +Placebo (P) group 3: Treatment from d3-d16 • Treatment (T) group 4 +Placebo (P) group 4: Treatment from d4-d17

[2] = tested on: outer hair cells (OHC) in the cochlea; test: Cochlear hair cell loss (cochleogram) after noise trauma; format: in vivo, mice; conditions: 26.4 mg/kg peroral once daily for 14 days after noise trauma; at growing distances from the apex; vs placebo; FIG. 2
Protocol: as §1, §2
(§3) Six animals per group (48 in total) have been perfused via the left hearth chamber with a fixative solution (paraformaldehyde (4%)) on day 15.
(§4) Cochleae and brains were prepared (cutting, staining), as disclosed in Gröschel et al. (2010).

[3] = tested on: neuronal cells in the ventral cochlear nucleus (VCN); test: Neuronal cell density in the ventral cochlear nucleus (VCN) after noise trauma; format: in vivo, mice
Protocol: as §1, §2, §3, §4

[4] = tested on: neuronal cells in the inferior colliculus (IC); test: Neuronal cell density in the inferior colliculus (IC) after noise trauma; format: in vivo, mice; conditions: 26.4 mg/kg peroral once daily for 14 days, initiated 0 h, 24 h, 48 h or 72 h after acoustic trauma; compared to placebo; FIG. 5
Protocol: as §1, §2, §3, §4

Structure (SMILES) | threshold shift of the auditory brainstem response [1] | loss of outer hair cells (OHC) in the cochlea [2] | destruction of neuronal cells in the VCN (normalized cell densities per grid) ([3]; 26.4 mg/kg peroral once daily for 14 days, initiated immediately or 24/48/72 h after acoustic trauma, vs placebo, FIGS. 3 and 4) | destruction of neuronal cells in the IC (normalized cell densities per grid) [4] | loss of neurons in the brainstem ([3]; administration upon the onset of lesions after acoustic trauma, summary in discussion (VCN and IC))
CN1C(=O)COc2c(C(=O)N[C@H]3CN4CCC3CC4)cc(Cl)cc21 [(R)-azasetron besylate] | does not significantly affect | affects the loss of outer hair cells | reduces the destruction of neuronal cells | reduces the destruction of neuronal cells | 
CN1C(=O)COc2c(C(=O)NC3CN4CCC3CC4)cc(Cl)cc21 (centres unmarked) [azasetron, N-(1-azabicyclo[2.2.2]octan-8-yl)-6-chloro-4-methyl-3-oxo-1,4-benzoxazine-8-carboxamide, reference compound] |  |  |  |  | significantly reduce the loss of neurons

— patent US20220265668A1, “TREATMENT AND/OR PREVENTION OF LESIONS IN THE CENTRAL AUDITORY NERVOUS SYSTEM” (SENSORION, priority 2019, published 2022)
